The numbers were not newly measured in publication PMC7709506 (ESMO Open, 2020), which cites them from elsewhere.

For the series the following is noted: patients, phase I/II trial; cited from earlier work.

Turning to `CNC(=O)c1cccc2cc(Oc3ccnc4cc(OCC5(N)CC5)c(OC)cc34)ccc12` [lucitanib], the Hypertension is on record as 91% and the “grade 3 hypertension events” value was 57%.
